# Starred links: 1 amine or outer side, 2 acyl side, 3 side chain; linkers in the order of their positions; H or OH if unused. Non-standard residues stand in square brackets, D forms with d. Residues, ends and D or L forms follow the SMILES beside them. ξ: configuration not given here. *: point of attachment. X1 = Cc1ccc(N[*:1])cc1C(=O)[*:2]; X2 = C[C@@H](N*)c1cccc2ccccc12; ξR = N=C(N)NCCCC(N)C(=O)O; ξL = CC(C)CC(N)C(=O)O; ξS = NC(CO)C(=O)O
# Test system: Omicron BA5.2 variant of SARS-CoV-2
# Assay type: cell-based
smiles,measurement,value
Cc1ccc(NC(=O)CNC(=O)CNC(=O)C(CCCNC(=N)N)NC(=O)C(CC(C)C)NC(=O)C(CCCNC(=N)N)NC(=O)C(N)CO)cc1C(=O)N[C@H](C)c1cccc2ccccc12 (stereo partly shown) [RG-17] (H-[ξS][ξR][ξL][ξR]GG[X1]-X2),IC50 for inhibition of replication of the SARS-CoV-2 genome (qPCR),lower than GRL0617
